In EPA's ToxValDB 9.5 (doi:10.2903/j.efsa.2017.4790):

Legend:
Apis mellifera = settings: acute, mortality
Folsomia candida = settings: chronic/long-term; mortality
Rattus norvegicus = settings: for LD50: acute, mortality
Colinus virginianus = settings: acute, oral, mortality
Canidae = settings: chronic; duration: 1 years; oral; Dog Other; organ weight
Daphnia magna = settings: chronic/long-term; duration: 21 days; reproduction
Oncorhynchus mykiss = settings: chronic/long-term; duration: 21 days; behavior

| SMILES | LD50 (Apis mellifera; dermal) [µg/piece] | LD50 (Apis mellifera; oral, unspecified) [µg/piece] | NOEC (Folsomia candida) [mg/kg] | NOAEL (Anas platyrhynchos; chronic/long-term) [mg/kg-day] | LD50 (Rattus norvegicus; M/F) [mg/kg-day] | LD50 (Colinus virginianus; diet) [mg/kg-day] | LD50 (Colinus virginianus) [mg/kg-day] | NOAEL (Anas platyrhynchos; reproductive) [mg/kg-day] | LD50 (Rattus norvegicus; F) [mg/kg-day] | NOAEL (Rattus norvegicus; developmental, development) [mg/kg-day] | NOAEL (Canidae) [mg/kg-day] | NOEC (Daphnia magna) [mg/L] | NOEC (Oncorhynchus mykiss) [mg/L] | NOAEL (Rattus norvegicus; reproduction developmental, body weight) [mg/kg-day] |
| --- | --- | --- | --- | --- | --- | --- | --- | --- | --- | --- | --- | --- | --- | --- |
| CCCC(=O)Oc1c(Br)cc(C#N)cc1Br [Bromoxynil butyrate] | 199 | 76.4 | 125 | 15.9 | 116 | > 190 | 420 |  |  |  |  |  |  |  |
| CCCCCCC(=O)Oc1c(Br)cc(C#N)cc1Br [Bromoxynil heptanoate] | > 201 | > 201 | 70.5 |  |  | 1900 | 379 | 15.9 | 292 | 4 | 0.3 |  |  |  |
| N#Cc1cc(Br)c(O)c(Br)c1 [Bromoxynil] |  |  | 56 |  |  |  |  | 10.9 |  | 4 | 0.3 | 3.1 | 2 | 3.39 |
